The target in assay [1] is Histone-lysine N-methyltransferase NSD2 (Homo sapiens, UniProt O96028). Type of assay: biochemical.
Assay [2] is described as follows: cells. Type of assay: functional, cell-based.
Assay [3] deals with T1, Trace amine-associated receptor 1 (Homo sapiens, UniProt Q96RJ0).
T1 sequence (Q96RJ0 whole entry): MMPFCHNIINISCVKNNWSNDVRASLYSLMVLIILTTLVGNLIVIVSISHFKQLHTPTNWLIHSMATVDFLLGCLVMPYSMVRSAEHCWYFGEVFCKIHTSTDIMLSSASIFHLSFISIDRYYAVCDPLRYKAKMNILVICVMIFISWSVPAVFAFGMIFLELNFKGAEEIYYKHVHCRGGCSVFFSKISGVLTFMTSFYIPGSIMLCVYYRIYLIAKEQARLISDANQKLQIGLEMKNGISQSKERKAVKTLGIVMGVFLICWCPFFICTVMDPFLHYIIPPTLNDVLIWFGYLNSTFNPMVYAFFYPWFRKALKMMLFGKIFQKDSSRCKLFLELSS
The assay can be described thus: Fluorescence-based cell-based high throughput dose response assay to identify agonists of the human trace amine associated receptor 1 (TAAR1). Type of assay: functional.

In assay [4] the target is T1, Trace amine-associated receptor 1. The assay can be described thus: Counterscreen for agonists of the human trace amine associated receptor 1 (hTAAR1): Fluorescence-based cell-based high throughput dose response assay to identify hTAAR1 agonist that also desensitize TAAR1 receptor response. In kind it is functional.
Assay [5] can be described thus: cells. Type of assay: functional, cell-based. This is another data set of the same source.
A short description of assay [6]: MC4R antagonists, dose response, counter-screen for LGR2 antagonist project, cell-based, plate reader, cherry pick (AID 743444).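 Also: transfected HEK 293 cells stimulated with alpha-MSH peptide; potency of inhibitors of the alpha-MSH evoked signal.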 In kind it is functional.
A short description of assay [7]: HEK293 cell cytotoxicity, dose response, cytotoxicity control, plate reader, cherry-picked samples (AID 743446). Type of assay: functional, cell-based.
The nature of assay [8]: LGR2 antagonists, dose response, cell-based, HEK293, CRE-luciferase reporter, cherry pick, set 2 (AID 743343).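 Also: transfected cells were stimulated with diluted bursicon conditioned medium after compound addition.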 Type of assay: functional.
Assay [9] is described as follows: HepG2 cell cytotoxicity, dose response, cytotoxicity control, plate reader, cherry-pick, antagonist series (AID 743416). Type of assay: functional, cell-based.
The target in assay [10] is Galanin receptor type 3 (Homo sapiens, UniProt O60755). The assay can be described thus: Fluorescence-based cell-based primary high throughput dose response assay to identify antagonists of the Galanin Receptor 3 (GalR3). Type of assay: functional.
Chain of Galanin receptor type 3 (O60755 whole entry): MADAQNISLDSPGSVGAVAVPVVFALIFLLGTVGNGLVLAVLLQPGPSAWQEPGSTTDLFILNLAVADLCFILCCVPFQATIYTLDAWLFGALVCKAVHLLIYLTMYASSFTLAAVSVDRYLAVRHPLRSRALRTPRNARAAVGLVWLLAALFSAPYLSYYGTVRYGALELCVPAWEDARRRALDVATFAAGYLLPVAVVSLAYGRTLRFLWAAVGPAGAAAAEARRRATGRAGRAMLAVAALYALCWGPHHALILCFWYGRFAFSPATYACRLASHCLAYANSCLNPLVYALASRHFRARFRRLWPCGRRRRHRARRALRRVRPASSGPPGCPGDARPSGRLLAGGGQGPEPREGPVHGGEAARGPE
Assay [11] can be described thus: cells. In kind it is functional, cell-based. The following applies: HEK-CNG.
The target in assay [12] is T2, Sentrin-specific protease 7 (Homo sapiens, UniProt Q9BQF6).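 Also: Luminescence-based dose-response confirmation of ultra-high-throughput screening hits, measuring inhibition of SENP7.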
T2 sequence (Q9BQF6 whole entry): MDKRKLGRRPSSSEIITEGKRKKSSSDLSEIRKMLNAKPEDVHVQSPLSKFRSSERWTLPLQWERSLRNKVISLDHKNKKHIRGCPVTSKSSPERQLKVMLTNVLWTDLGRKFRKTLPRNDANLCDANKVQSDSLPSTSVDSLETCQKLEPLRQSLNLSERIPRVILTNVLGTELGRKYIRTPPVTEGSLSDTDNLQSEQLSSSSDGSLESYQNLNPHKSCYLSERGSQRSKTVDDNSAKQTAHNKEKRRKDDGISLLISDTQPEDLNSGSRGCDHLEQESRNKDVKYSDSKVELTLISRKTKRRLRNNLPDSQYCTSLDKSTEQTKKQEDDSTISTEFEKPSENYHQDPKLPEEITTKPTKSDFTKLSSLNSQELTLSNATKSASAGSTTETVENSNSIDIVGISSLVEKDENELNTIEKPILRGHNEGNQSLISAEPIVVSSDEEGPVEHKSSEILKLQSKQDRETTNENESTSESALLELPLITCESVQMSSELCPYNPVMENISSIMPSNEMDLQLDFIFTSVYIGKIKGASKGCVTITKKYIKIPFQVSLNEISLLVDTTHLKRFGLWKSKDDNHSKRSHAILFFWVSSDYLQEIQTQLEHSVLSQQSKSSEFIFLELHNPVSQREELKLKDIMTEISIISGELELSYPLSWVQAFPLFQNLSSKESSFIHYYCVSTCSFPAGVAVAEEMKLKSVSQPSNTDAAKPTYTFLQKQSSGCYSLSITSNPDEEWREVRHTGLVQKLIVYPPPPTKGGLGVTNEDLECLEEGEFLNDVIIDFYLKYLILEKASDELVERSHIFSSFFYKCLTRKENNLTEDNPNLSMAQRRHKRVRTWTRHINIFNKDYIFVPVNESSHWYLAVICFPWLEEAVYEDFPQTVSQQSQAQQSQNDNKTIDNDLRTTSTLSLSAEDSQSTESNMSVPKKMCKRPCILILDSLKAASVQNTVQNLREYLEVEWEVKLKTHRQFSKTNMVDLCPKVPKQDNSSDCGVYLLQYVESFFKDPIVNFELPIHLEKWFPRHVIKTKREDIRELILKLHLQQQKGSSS
Type of assay: functional.

The nature of assay [13]: Counterscreen for activators of the function of SWI/SNF related, matrix associated, actin dependent regulator of chromatin, subfamily a, member 2 (SMARCA2, BRM): Luminescence-based cell-based high throughput dose response assay to identify non-selective compounds using the VP16 reporter assay. Type of assay: functional.
Assay [14] has as its target T3, Sentrin-specific protease 8 (Homo sapiens, UniProt Q96LD8).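 Also: luminescence read-out of SENP8 inhibition, dose-response confirmation following an ultra-high-throughput screen.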
T3 sequence (Q96LD8 whole entry): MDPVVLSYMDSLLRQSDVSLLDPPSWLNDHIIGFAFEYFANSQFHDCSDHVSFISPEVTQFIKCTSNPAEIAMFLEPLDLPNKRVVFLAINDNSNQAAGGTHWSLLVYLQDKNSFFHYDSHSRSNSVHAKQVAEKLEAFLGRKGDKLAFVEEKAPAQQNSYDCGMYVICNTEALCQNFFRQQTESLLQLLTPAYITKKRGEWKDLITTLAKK
In kind it is functional.

Assay [15] has as its target T4, Sentrin-specific protease 6 (Homo sapiens, UniProt Q9GZR1).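 Also: Luminescence-based dose-response confirmatory assay of SENP6 inhibition, following up an ultra-high-throughput screen.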
T4 sequence (Q9GZR1 whole entry): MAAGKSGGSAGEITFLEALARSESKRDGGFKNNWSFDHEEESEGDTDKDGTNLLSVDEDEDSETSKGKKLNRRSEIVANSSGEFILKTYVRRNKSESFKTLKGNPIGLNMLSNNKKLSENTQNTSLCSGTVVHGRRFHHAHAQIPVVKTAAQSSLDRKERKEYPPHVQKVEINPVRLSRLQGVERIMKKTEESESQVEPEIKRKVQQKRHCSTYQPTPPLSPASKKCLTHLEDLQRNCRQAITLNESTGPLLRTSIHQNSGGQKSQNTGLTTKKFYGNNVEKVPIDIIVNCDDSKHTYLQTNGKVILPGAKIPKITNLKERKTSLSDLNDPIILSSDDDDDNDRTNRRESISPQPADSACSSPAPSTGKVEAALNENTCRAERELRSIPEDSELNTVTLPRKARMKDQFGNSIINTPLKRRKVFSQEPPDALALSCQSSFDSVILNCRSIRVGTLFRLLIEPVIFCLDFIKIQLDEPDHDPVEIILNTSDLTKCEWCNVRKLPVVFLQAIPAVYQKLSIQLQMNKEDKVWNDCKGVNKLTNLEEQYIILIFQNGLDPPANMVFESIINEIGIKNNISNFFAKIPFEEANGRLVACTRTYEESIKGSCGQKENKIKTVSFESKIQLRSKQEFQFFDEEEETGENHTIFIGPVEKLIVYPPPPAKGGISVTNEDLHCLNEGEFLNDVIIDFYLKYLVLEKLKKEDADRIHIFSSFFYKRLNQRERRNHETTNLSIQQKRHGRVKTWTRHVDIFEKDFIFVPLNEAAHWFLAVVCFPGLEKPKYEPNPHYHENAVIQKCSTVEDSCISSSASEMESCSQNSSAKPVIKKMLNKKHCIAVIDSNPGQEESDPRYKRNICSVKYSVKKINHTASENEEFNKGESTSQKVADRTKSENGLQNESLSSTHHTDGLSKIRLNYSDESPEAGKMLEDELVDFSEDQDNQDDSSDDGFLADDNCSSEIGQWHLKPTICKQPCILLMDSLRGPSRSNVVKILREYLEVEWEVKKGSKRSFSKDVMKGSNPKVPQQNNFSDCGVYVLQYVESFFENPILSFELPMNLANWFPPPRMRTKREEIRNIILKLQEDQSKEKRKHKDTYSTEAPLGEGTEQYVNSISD
Type of assay: functional.

Assay [16] deals with T5, Caspase-3 (Homo sapiens, UniProt P42574).
T5 sequence (P42574 whole entry): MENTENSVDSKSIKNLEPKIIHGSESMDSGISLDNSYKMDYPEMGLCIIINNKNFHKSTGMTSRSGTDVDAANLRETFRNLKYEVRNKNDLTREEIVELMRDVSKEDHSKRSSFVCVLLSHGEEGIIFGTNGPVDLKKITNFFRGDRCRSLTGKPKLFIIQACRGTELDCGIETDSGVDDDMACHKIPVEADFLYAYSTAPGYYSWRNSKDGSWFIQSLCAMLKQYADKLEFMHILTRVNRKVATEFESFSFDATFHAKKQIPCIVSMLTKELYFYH
In kind it is functional.

Assay [17] deals with SWI/SNF-related matrix-associated actin-dependent regulator of chromatin subfamily A member 2 (Homo sapiens, UniProt P51531). Nature of the assay: Luminescence-based cell-based high throughput dose response assay to identify activators of the function of SWI/SNF related, matrix associated, actin dependent regulator of chromatin, subfamily a, member 2 (SMARCA2, BRM). Type of assay: functional.
Chain of SWI/SNF-related matrix-associated actin-dependent regulator of chromatin subfamily A member 2 (P51531 whole entry): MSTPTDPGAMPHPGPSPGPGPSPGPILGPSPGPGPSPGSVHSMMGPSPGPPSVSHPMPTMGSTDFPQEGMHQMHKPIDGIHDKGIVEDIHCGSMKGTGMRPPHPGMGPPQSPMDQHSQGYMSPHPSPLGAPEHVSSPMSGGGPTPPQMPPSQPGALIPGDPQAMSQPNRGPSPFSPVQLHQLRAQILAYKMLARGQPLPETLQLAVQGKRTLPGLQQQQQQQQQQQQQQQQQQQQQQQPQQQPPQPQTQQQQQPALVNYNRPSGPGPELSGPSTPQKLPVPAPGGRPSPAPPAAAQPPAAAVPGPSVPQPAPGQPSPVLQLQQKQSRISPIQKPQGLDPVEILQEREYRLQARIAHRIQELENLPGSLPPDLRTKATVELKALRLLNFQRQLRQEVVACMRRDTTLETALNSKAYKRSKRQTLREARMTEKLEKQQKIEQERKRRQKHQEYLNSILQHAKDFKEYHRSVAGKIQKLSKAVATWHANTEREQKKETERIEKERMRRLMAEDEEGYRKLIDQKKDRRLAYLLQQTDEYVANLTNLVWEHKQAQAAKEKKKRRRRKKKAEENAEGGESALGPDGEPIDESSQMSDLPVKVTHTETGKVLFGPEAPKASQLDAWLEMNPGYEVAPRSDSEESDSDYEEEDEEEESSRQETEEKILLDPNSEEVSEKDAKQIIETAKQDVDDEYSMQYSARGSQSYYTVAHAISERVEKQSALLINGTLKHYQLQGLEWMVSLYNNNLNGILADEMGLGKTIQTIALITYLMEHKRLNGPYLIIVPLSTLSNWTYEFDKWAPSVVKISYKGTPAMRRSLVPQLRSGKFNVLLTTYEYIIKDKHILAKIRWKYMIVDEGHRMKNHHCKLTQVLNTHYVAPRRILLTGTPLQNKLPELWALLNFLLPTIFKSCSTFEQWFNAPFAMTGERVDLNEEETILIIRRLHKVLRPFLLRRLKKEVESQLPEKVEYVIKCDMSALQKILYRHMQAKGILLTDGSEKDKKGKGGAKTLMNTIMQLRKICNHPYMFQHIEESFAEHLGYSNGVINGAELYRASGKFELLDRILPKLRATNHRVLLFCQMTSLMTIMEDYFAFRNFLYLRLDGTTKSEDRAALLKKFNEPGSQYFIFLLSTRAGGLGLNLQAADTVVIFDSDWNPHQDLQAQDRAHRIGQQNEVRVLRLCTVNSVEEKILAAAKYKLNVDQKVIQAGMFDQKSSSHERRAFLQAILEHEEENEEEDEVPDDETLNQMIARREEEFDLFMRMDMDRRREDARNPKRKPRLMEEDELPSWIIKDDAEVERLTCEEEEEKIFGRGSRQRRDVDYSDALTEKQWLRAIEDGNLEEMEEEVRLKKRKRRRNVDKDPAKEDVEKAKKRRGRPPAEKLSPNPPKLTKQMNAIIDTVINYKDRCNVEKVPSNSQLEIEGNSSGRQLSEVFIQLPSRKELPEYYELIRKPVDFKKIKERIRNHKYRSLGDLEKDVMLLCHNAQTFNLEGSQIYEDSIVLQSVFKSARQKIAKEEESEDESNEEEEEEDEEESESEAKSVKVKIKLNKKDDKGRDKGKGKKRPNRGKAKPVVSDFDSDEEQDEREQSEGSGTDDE

Assay [18] deals with Streptococcus sp. 'group A'. The assay can be described thus: growth inhibition of control SK(-) GAS strain, dose response, counter-screen for streptokinase expression inhibitor project, luminescence, kanamycin, BacTiterGlo, confirmation (AID 1900). In kind it is functional, organism-based.
Assay [19] has as its system Streptococcus. The assay can be described thus: Group A Streptococcus viability loss, dose response, counter-screen for streptokinase expression inhibitor project, luminescence, BacTiterGlo (AID 1915).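 Also: potency for reduction of bacterial viability or growth.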 In kind it is functional, organism-based.
Assay [20] addresses T6, Streptokinase A (Streptococcus pyogenes serotype M1, UniProt P10520).
T6 sequence (P10520 whole entry): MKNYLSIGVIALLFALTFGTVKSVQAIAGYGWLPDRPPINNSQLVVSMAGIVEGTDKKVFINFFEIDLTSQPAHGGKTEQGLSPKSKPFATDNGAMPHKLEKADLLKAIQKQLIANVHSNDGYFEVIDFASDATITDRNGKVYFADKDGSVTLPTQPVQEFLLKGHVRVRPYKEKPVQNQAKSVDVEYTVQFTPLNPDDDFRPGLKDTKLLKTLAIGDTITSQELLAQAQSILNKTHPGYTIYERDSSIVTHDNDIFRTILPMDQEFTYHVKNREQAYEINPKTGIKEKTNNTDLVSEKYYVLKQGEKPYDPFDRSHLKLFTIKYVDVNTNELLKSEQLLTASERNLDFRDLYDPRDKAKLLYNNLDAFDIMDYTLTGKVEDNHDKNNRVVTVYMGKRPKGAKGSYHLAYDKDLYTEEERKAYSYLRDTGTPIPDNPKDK
Nature of the assay: S. pyogenes streptokinase expression inhibitors, potency, dose response, plasminogen activation absorbance, OD405 (AID 1914).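 Also: secreted streptokinase activity via plasminogen activation per viability signal from cell pellet.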 Type of assay: functional, Streptococcus pyogenes M1 GAS.

Activity calls are given as the source filed them.

Chain of Histone-lysine N-methyltransferase NSD2 (O96028 whole entry): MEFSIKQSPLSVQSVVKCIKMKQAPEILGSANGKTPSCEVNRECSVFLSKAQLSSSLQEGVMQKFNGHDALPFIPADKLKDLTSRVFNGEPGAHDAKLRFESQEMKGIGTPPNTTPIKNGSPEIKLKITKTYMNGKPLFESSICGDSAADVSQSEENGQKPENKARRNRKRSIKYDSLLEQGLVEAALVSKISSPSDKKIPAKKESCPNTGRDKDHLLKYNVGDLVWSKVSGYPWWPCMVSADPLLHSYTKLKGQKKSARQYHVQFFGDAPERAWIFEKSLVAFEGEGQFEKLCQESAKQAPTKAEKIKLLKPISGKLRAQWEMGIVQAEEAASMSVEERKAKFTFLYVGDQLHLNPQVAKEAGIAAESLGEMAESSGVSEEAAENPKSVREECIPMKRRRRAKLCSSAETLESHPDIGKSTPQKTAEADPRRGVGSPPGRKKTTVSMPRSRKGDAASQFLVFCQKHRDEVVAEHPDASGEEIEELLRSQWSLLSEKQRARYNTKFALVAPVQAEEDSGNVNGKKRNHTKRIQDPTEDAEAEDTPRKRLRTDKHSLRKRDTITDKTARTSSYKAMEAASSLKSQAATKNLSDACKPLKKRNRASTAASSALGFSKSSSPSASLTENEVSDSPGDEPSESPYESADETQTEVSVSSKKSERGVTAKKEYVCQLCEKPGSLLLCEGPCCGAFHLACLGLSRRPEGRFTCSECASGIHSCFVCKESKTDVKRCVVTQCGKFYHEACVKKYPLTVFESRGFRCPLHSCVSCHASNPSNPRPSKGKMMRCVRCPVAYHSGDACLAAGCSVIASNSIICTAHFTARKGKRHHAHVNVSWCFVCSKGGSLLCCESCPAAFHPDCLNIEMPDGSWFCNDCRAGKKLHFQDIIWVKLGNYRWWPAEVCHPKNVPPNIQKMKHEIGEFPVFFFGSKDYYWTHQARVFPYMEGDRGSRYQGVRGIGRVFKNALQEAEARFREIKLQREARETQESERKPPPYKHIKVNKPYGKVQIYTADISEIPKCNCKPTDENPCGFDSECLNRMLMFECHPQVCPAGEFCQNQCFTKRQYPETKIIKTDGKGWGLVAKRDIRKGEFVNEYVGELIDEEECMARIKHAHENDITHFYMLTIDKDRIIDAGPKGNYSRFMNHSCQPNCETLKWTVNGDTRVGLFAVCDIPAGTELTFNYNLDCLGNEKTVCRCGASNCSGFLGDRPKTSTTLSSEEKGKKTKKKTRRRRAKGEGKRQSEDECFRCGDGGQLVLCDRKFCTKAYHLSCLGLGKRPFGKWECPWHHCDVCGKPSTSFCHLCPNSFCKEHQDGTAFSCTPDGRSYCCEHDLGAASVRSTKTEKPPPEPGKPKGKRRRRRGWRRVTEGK

For the molecule `CCCN(CCC)CCCNC(=O)c1ccc(CS(=O)(=O)c2c(Cl)cccc2Cl)o1`, the AC50 in assay [1] is > 20 µM (inactive).

For the molecule `CC(Cc1ccccc1)NC=O` (centres undefined) [FORMETOREX], the IC50 in [2] was > 29.9 µM (inactive); in [4] it was 2.27 µM (active). Also, the EC50 is 0.576 µM (active) in [3] and > 29.9 µM (inactive) in assay [5].

For the molecule `O=C(Nc1nc2ccccc2s1)c1ccc2sc([C@H]3C[C@H](O)[C@@H](CO)O3)nc2c1`, the AC50 in assay [6] was 18.5 µM (active); in assay [7], > 52 µM (inactive); in [8], 18.2 µM (active); in [9], > 52 µM (inactive).

Turning to `Clc1cccc(CN2CCN(c3ncc(Cc4ccccc4)cn3)CC2)c1Cl`, in [10], the concentration for half-maximal inhibition (IC50) is > 0.369 µM (active). Moreover, the EC50 in assay [11] is > 29.9 µM (inactive).

Turning to `Fc1cccc(F)c1-c1nc(-c2ccc(Cl)cc2)no1`, the half-maximal inhibitory concentration (IC50) is 3.99 µM (active) in [12], 21.8 µM (active) in assay [14], 5.78 µM (active) in [15] and 25.2 µM (active) in assay [16]. Moreover, the EC50 in [13] and in assay [17] was > 91.2 µM (inactive) in each case.

`CCN(CCn1cccn1)C(=O)CC1C(=O)NCCN1CCc1ccccc1` (centres undefined): the concentration for a half-maximal effect (EC50) in assay [18] was > 150 µM (not active); in assay [19], > 150 µM (not active); in [3] it was 1.31 µM (active); in [5], > 29.9 µM (inactive); in assay [20] it was > 150 µM (not active). In addition, the values for the IC50 in assay [2] and in assay [4] were > 29.9 µM (inactive) and 2.2 µM (active), respectively.

The values are drawn from ChEMBL document CHEMBL1201862, “PubChem BioAssay data set” (2004).
